Experimental data: patent US6455593B1, “Method of dynamic retardation of cell cycle kinetics to potentiate cell damage” (priority 1995, dated 2002)
Read-outs that look alike come from different tables or passages of the source.

Columns and labels:
[1] = continuous infusion, minimal toxicity; cited from earlier work
[2] = test system: human promonocytic lymphoma cells (U937); assay: Microculture indicator system (MIS), MTT growth inhibition assay with bivariate serial dilutions; format: cell-based; details: for inhibition at 0.01 µg/mL / inhibition at 0.02 µg/mL / inhibition at 0.03 µg/mL / inhibition at 0.06 µg/mL / inhibition at 0.5 µg/mL / inhibition at 1 µg/mL / inhibition at 2 µg/mL / inhibition at 4 µg/mL: Homo sapiens
Outline: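 U937 human promonocytic lymphoma cells were tested in flat-bottom 96-well plates. Two agents were each diluted two-fold by serial mixing, then combined into bivariate dilution series before about 1×10^5 cells per well were added in RPMI 1640 with 10% Nurserum and antibiotics, 100 μl per well. Plates were incubated at 37° C. Thirty μl of 0.5% MTT was then added for 3 hr. Formazan was dissolved overnight with 120 μl of 10 % SDS/0.01 N HCl and absorbance was read at 570 nm against a cell-free blank.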

With `C[C@@]1(CO)[C@H](O)CC[C@@]2(C)[C@H]1CC[C@H]1C[C@@H]3C[C@@]12CC[C@]3(O)CO` [Aph, aphidicolin] as the molecule, how does the Peak plasma levels [1] read?
The Peak plasma levels was 3 µg/mL.

What about the inhibition at 0.01 µg/mL ([2]; U-937, 4 h, U937, Aph 0.01 ug/ml 4 H, K252a 0, read-out: MTT % inhibition, Aph only) of the same molecule?
The inhibition at 0.01 µg/mL was 5%.

And the inhibition at 0.02 µg/mL ([2]; U-937, 4 h, U937, Aph 0.02 ug/ml 4 H, K252a 0, read-out: MTT % inhibition, Aph only)?
Its inhibition at 0.02 µg/mL is 0%.

And the inhibition at 0.03 µg/mL ([2]; U-937, 4 h, U937, Aph 0.03 ug/ml 4 H, K252a 0, read-out: MTT % inhibition, Aph only)?
Its inhibition at 0.03 µg/mL is 1%.

And the inhibition at 0.06 µg/mL ([2]; U-937, 4 h, U937, Aph 0.06 ug/ml 4 H, K252a 0, read-out: MTT % inhibition, Aph only)?
Its inhibition at 0.06 µg/mL is 14%.

What about the inhibition at 0.5 µg/mL ([2]; U-937, 4 h, U937, Aph 0.50 ug/ml 4 H, K252a 0, read-out: MTT % inhibition, Aph only) of the same molecule?
The inhibition at 0.5 µg/mL was 9%.

What about the inhibition at 1 µg/mL ([2]; U-937, 4 h, U937, Aph 1.00 ug/ml 4 H, K252a 0, read-out: MTT % inhibition, Aph only) of the same molecule?
The inhibition at 1 µg/mL was 14%.

And the inhibition at 2 µg/mL ([2]; U-937, 4 h, U937, Aph 2.00 ug/ml 4 H, K252a 0, read-out: MTT % inhibition, Aph only)?
The inhibition at 2 µg/mL was 24%.

And the inhibition at 4 µg/mL ([2]; U-937, 4 h, U937, Aph 4.00 ug/ml 4 H, K252a 0, read-out: MTT % inhibition, Aph only)?
The inhibition at 4 µg/mL was 38%.

And the inhibition at 0.01 µg/mL ([2]; U-937, U937, total 18 H, STSP 14 H, Aph 4 H, Aph 0.01 ug/ml, STSP nM by row: r7 100, r8 50, r9 25, r10 12.5, r11 6.25, r12 3.13, r13-r14 0, read-out: Growth inhibition (MTT))?
The inhibition at 0.01 µg/mL was 1%.

And the inhibition at 0.02 µg/mL ([2]; U-937, U937, total 18 H, STSP 14 H, Aph 4 H, Aph 0.02 ug/ml, STSP nM by row: r7 100, r8 50, r9 25, r10 12.5, r11 6.25, r12 3.13, r13-r14 0, read-out: Growth inhibition (MTT))?
Its inhibition at 0.02 µg/mL is 7%.

And the inhibition at 0.03 µg/mL ([2]; U-937, U937, total 18 H, STSP 14 H, Aph 4 H, Aph 0.03 ug/ml, STSP nM by row: r7 100, r8 50, r9 25, r10 12.5, r11 6.25, r12 3.13, r13-r14 0, read-out: Growth inhibition (MTT))?
The inhibition at 0.03 µg/mL was 6%.

What about the inhibition at 0.06 µg/mL ([2]; U-937, U937, total 18 H, STSP 14 H, Aph 4 H, Aph 0.06 ug/ml, STSP nM by row: r7 100, r8 50, r9 25, r10 12.5, r11 6.25, r12 3.13, r13-r14 0, read-out: Growth inhibition (MTT)) of the same molecule?
The inhibition at 0.06 µg/mL was 9%.

What about the inhibition at 0.5 µg/mL ([2]; U-937, U937, total 18 H, STSP 14 H, Aph 4 H, Aph 0.50 ug/ml, STSP nM by row: r7 100, r8 50, r9 25, r10 12.5, r11 6.25, r12 3.13, r13-r14 0, read-out: Growth inhibition (MTT)) of the same molecule?
The inhibition at 0.5 µg/mL was 21%.

And the inhibition at 1 µg/mL ([2]; U-937, U937, total 18 H, STSP 14 H, Aph 4 H, Aph 1.00 ug/ml, STSP nM by row: r7 100, r8 50, r9 25, r10 12.5, r11 6.25, r12 3.13, r13-r14 0, read-out: Growth inhibition (MTT))?
Its inhibition at 1 µg/mL is 22%.

And the inhibition at 2 µg/mL ([2]; U-937, U937, total 18 H, STSP 14 H, Aph 4 H, Aph 2.00 ug/ml, STSP nM by row: r7 100, r8 50, r9 25, r10 12.5, r11 6.25, r12 3.13, r13-r14 0, read-out: Growth inhibition (MTT))?
Its inhibition at 2 µg/mL is 31%.

What about the inhibition at 4 µg/mL ([2]; U-937, U937, total 18 H, STSP 14 H, Aph 4 H, Aph 4.00 ug/ml, STSP nM by row: r7 100, r8 50, r9 25, r10 12.5, r11 6.25, r12 3.13, r13-r14 0, read-out: Growth inhibition (MTT)) of the same molecule?
Its inhibition at 4 µg/mL is 30%.

What about the “Potentiation of DNA damage by STSP as RA” value ([2]; U937, concentrations less than IC40, STSP as the TCI) of the same molecule?
The value was “proved successful in potentiating DNA damage by STSP”.

And the “combined results ratio, Aph only (baseline line)” value ([2]; U937, Aph alone, every Aph concentration 4.00-0.01 ug/ml)?
Its value is 1.0.

And the Combined results ratio ([2]; U937, total 18 H, STSP 14 H, Aph 4 H, Aph 0.01 ug/ml, STSP nM by row: r7 100, r8 50, r9 25, r10 12.5, r11 6.25, r12 3.13, r13-r14 0)?
The Combined results ratio was 1.0.

And the Combined results ratio ([2]; U937, total 18 H, STSP 14 H, Aph 4 H, Aph 0.02 ug/ml, STSP nM by row: r7 100, r8 50, r9 25, r10 12.5, r11 6.25, r12 3.13, r13-r14 0)?
The Combined results ratio was 1.0.

And the Combined results ratio ([2]; U937, total 18 H, STSP 14 H, Aph 4 H, Aph 0.03 ug/ml, STSP nM by row: r7 100, r8 50, r9 25, r10 12.5, r11 6.25, r12 3.13, r13-r14 0)?
Its Combined results ratio is 1.0.

What about the Combined results ratio ([2]; U937, total 18 H, STSP 14 H, Aph 4 H, Aph 0.06 ug/ml, STSP nM by row: r7 100, r8 50, r9 25, r10 12.5, r11 6.25, r12 3.13, r13-r14 0) of the same molecule?
Its Combined results ratio is 1.0.

And the Combined results ratio ([2]; U937, total 18 H, STSP 14 H, Aph 4 H, Aph 0.50 ug/ml, STSP nM by row: r7 100, r8 50, r9 25, r10 12.5, r11 6.25, r12 3.13, r13-r14 0)?
The Combined results ratio was 1.0.

And the Combined results ratio ([2]; U937, total 18 H, STSP 14 H, Aph 4 H, Aph 1.00 ug/ml, STSP nM by row: r7 100, r8 50, r9 25, r10 12.5, r11 6.25, r12 3.13, r13-r14 0)?
Its Combined results ratio is 1.0.

And the Combined results ratio ([2]; U937, total 18 H, STSP 14 H, Aph 4 H, Aph 2.00 ug/ml, STSP nM by row: r7 100, r8 50, r9 25, r10 12.5, r11 6.25, r12 3.13, r13-r14 0)?
Its Combined results ratio is 1.0.

What about the Combined results ratio ([2]; U937, total 18 H, STSP 14 H, Aph 4 H, Aph 4.00 ug/ml, STSP nM by row: r7 100, r8 50, r9 25, r10 12.5, r11 6.25, r12 3.13, r13-r14 0) of the same molecule?
Its Combined results ratio is 1.0.
